From patent publication US7453006B2, “Inositol derivatives for increasing chloride secretion and inhibiting inflammation” (Inologic, Inc., priority 2000, dated 2008)
“Also recorded” adds a separate entry of the source.

How the values were obtained:
[1] = tested on: arachidonic acid-induced inflammation in mouse ears; assay: arachidonic acid-induced inflammation in mouse ears; format: in vivo; conditions: for Ear Thickness: 20 nanomoles/ear topical 30 min before arachidonic acid, measured 60 min after arachidonic acid, control 56.5 ± 1.57
Procedure: Arachidonic Acid (Nu-Chek, Elysian, Minn. 56028); Indomethacin (stock=12.5 mg/mL acetone). Prednisolone (Sigma Chem, P6004) 20 mM dissolved in acetone; Animals: Female Balb/c mice (B&K laboratories) and Swiss-Webster hybrid (B& K Laboratory, Kent, Wash.)
The right ear of each mouse was used for the test compound. Unless otherwise indicated each compound was adjusted to 20 mM by dilution into DMSO or DMSO/5% Pluronic F127 as indicated and 1 or 2 microliters were applied to the test ear. Thirty minutes after each compound was applied, 4 mg arachidonic acid was applied (4 μL/ear; 2 μL/side) to both ears of each mouse. Measurements of edema were taken 60 min after the application of arachidonic acid with microcalipers (Oditest, Scientific Supply and Equipment) unless otherwise indicated. The results are shown in FIG. 15 as millimeters×10^−2 measured at the thickest point of each ear. Control measurements were performed on ears that were only treated with arachidonic acid.
Response to prednisolone (20 μL of 20 mM/ear; 10 μl/side) added 3 hrs prior 20′ to arachidonic acid or indomethacin (5 μg/ear) added 30 min prior to test compounds was determined. The results are shown in Table A, where the anti-inflammatory/inflammatory effects of 20 nanomoles/ear of the indicated compounds were tested as described in Methods. Each plus represents a change from control (arachidonic acid alone) of 2.5 mm×10^−2. Effects were compared with those of Indomethacin (400 nmols/ear).
Acute inflammation: Membrane permeant inositol polyphosphate analogs were administered topically and tested for inhibition of inflammatory symptoms induced by arachidonic acid on the ear of Swiss Webster mice.

T84 cells = assay: Colonic Epithelial Cell Assay (Isc across T84 monolayers, Ussing chambers); format: cell-based, human; conditions: for Isc response to carbachol / Isc response to thapsigargin following carbachol: 400 μM, 30 min preincubation, T84
Procedure: Cl^− secretion in colonic epithelial cells was measured as short circuit current (Isc) across T84 monolayers grown to confluence on Snap-wells (Costar) and mounted in Ussing chambers equipped with voltage clamps (Physiologic Instruments, San Diego). Data was acquired and analyzed using AAcquire and Analyze@ software (Physiologic Instruments). T84 cells (passages 18-48) were maintained as described previously in McRoberts, J. A. et al., “Cyclic AMP and Ca^2+-activated K^+ transport pathway in the apical membrane of a human colonic epithelial cell line,” J. Biol. Chem. 260:14163-14172 (1985). After […] of incubation on Snap-wells, monolayers had formed tight junctions and were preincubated with […] Bt2D-myo-Ins(3,4,5,6)P4/AM for 30-min. prior to mounting. An extracellular concentration of 200 uM corresponds to an intracellular concentration of 4 uM (Vajanaphnich, et al., “Long-term uncoupling of chloride secretion from intracellular calcium levels by Ins(3,4,5,6)P4,” Nature 371:711-714 (1994)). […]

[2] = tested on: CF Human Nasal Epithelial (CFHNE) cells; assay: Cystic Fibrosis Human Nasal Epithelial Cell Assay (Isc, Ussing chambers); format: cell-based
Procedure: CF Human Nasal Epithelial (CFHNE) Cell Isolation and Proliferation
Nasal Polyps were surgically obtained from a CF patient at Children's Hospital (Seattle, Wash.), transported on ice in a sterile container containing a 1:1 mixture of Dulbecco's modification of minimum essential medium Eagle and Ham's F-12 nutrient medium (DMEM/F-12) (Irvine Scientific, Santa Ana, Calif.) supplemented with 100 U/mL penicillin, 0.1 mg/mL streptomycin, 10 mM HEPES, and 2 mM L-glutamine. The tissue samples were aseptically removed from the transport medium and washed (repeated 5 times) by suspending in 40 mL of Joklik's modification of minimum essential medium Eagle (JMEM) at 4° C., and centrifuging at 500 rpm. The supernatant was aspirated and discarded. The tissue was then transferred to JMEM containing 200 U/mL penicillin, 0.2 mg/mL streptomycin, 0.1 mg/mL gentamycin sulfate (Clonetics, San Diego, Calif.), and 0.1 μg/mL amphotericin-B (Clonetics), and 0.1% Protease, washed an additional two times, suspended in […] in a 10 cm tissue culture dish, and incubated at 4° C. for 24 hours. The tissue samples were then gently triturated, the connective tissue aseptically removed, and the remaining cell suspension centrifuged at 1000 rpm. The supernatant was aspirated and the pellet was resuspended in 10 mL proliferation media, consisting of Keratinocyte-Serum Free Medium (KSFM) (Gibco-BRL, Grand Island, N.Y.) containing 5 ng/ml EGF (Gibco), 50 μg/mL BPE (Gibco), 5 μg/mL insulin, 5 μg/mL transferrin, 5 μg/ml sodium selenite, 10 nM 3,3′,5-triiodo-L-thyronine, 200 nM hydrocortisone, 100 U/mL penicillin, 0.1 mg/mL streptomycin, and 2 mM L-glutamine. The cell suspension was transferred to 2.10 cm tissue culture dishes coated with 3 μg/cm^2 rat-tail collagen (Type I) (Becton-Dickinson, Bedford, Mass.), incubated at 37° C. in an humidified atmosphere of 5% CO2 and 95% air. The cells were allowed to grow for 6 days (˜70% confluence) with the media being replaced with fresh media every other day. The cells were then trypsinized using 0.025% trypsin-EDTA for 5 min. The cell suspension was collected, the trypsin deactivated with 10% Fetal Bovine Serum, and centrifuged at 1000 rpm for 5 min. The cells were then counted using an hemocytometer with a yield of 3×10^6 cells per dish. The supernatant was aspirated and the cells were resuspended in KSFM and plated at a density of 10^4 cells/cm^2.
CFHNE Cell Ussing Chamber Preparation
The CFHNE cells were prepared for Ussing Chamber studies using Snapwell permeable supports (0.4 μm pore size) (Corning Costar, Cambridge, Mass.) coated with 3 μg/cm^2 rat-tail collagen (type 1). Cells were plated at 9×10^3 cells/cm^2 in KSFM. After 2 days, an air-liquid interface (ALI) was initiated in DMEM/F-12 containing: 2% Fetal Clone III (Hyclone, Logan, Utah), 2.5 μg/mL insulin, 2.5 μg/mL transferrin, 2.5 μg/mL sodium selenite, 20 nM hydrocortisone, 1.5 μM epinephrine, 50 μg/mL BPE, 1 nM 3,3′,5-triiodo-L-thyronine, 3.3 nM All-trans retinoic acid, 250 nM ethanolamine, 250 nM O-phosporylethanolamine, 100 U/mL penicillin, 0.1 mg/ml streptomycin, and 2 mM L-glutamine. The CFHNE monolayers reached maximal resistance (˜200 Ω/cm^2) 5-7 days after initiation of ALI. All media/reagents, unless otherwise specified, were supplied by Sigma Chemical Co., St. Louis, Mo.

[3] = extracellular concentration of 200 uM; cited from earlier work
[4] = macroscopic negative effects / side effects after ip and iv injection; format: in vivo, mouse; conditions: several weeks after treatment
[5] = preincubation with 200 μM, CFHNE monolayers

Compound: CCCOC1C(OP(=O)(OCOC(C)=O)OCOC(C)=O)C(OP(=O)(OCOC(C)=O)OCOC(C)=O)C(OP(=O)(OCOC(C)=O)OCOC(C)=O)C(OP(=O)(OCOC(C)=O)OCOC(C)=O)C1(CCC)OC(=O)CCC (racemic) [Compound A, rac-2-O-butyryl-2-C-propyl-1-O-propyl-myo-inositol 3,4,5,6-tetrakisphosphate-octakis(acetoxymethyl) ester]
- Ear Thickness [1]: 52.5 ± 5.5 mm × 10^−2
- Isc response to carbachol (T84 cells): did not affect
- Isc response to thapsigargin following carbachol (T84 cells): partially reversed the inhibition of thapsigargin induced chloride secretion; also recorded: partially restores the Isc response to thapsigargin following carbachol
- Isc response to subsequent stimulation with ATP ([2]; 95 μM, CFHNE): appeared to prolong the response to subsequent stimulation with ATP; also recorded: prolonged increase in Isc following ATP addition
- Isc, direct effect ([2]; 95 μM, CFHNE): little direct effect
- Isc, direct effect ([2]; 200 μM, added basolaterally, CFHNE (passage 3)): prolonged increase in Isc comparable in amplitude to that stimulated with ATP

Compound: CCCC12OC(C)(C)OC1C(OP(=O)(OCOC(C)=O)OCOC(C)=O)C(OP(=O)(OCOC(C)=O)OCOC(C)=O)C(OP(=O)(OCOC(C)=O)OCOC(C)=O)C2OP(=O)(OCOC(C)=O)OCOC(C)=O (racemic) [Compound B, rac-1,2-O-isopropylidene-2-C-propyl-myo-inositol 3,4,5,6-tetrakisphosphate-octakis(acetoxymethyl) ester]
- Ear Thickness [1]: 56.1 ± 2.1 mm × 10^−2
- Isc response to carbachol (T84 cells): prolongs; also recorded: prolonged increase in Isc response
- Isc response to thapsigargin following carbachol (T84 cells): overcomes the inhibitory effect of carbachol pretreatment; also recorded: prolonged increase in Isc response
- Isc, acute effect (T84 cells; applied acutely to the apical surface of T84 monolayers, one monolayer): triggers an increase in Isc; also recorded: large and prolonged increase in Isc
- negative component of the ATP effect on Isc ([2]; FIG. 11 legend: preincubation at 400 μM, CFHNE, average of duplicates): reverse the negative component of the ATP effect on Isc
- negative phase of Isc following ATP [2, 5]: totally reversed the negative phase, instead causing a long term increase in Isc
- transient increase in Isc following ATP [2, 5]: inhibited

Compound: CCCC(=O)OC1C(OC(=O)CCC)C(OP(=O)(OCOC(C)=O)OCOC(C)=O)C(OP(=O)(OCOC(C)=O)OCOC(C)=O)C(OP(=O)(OCOC(C)=O)OCOC(C)=O)C1OP(=O)(OCOC(C)=O)OCOC(C)=O (centres unmarked) [Bt2D-myo-Ins(3,4,5,6)P4/AM]
- intracellular concentration [3]: 4 µM

Compound: D-1-O-octyl-2-O-butyryl-myo-inositol 1,4,5,6-tetrakisphosphate-octakis-(propionoxymethyl)ester [INO-E3]
- effectiveness by route of application ([1]; topically, intraperitoneally and orally): effective when applied topically, intraperitoneally and orally
- macroscopic negative effects ([4]; ip injections up to 50 μg/animal): No macroscopic negative effects
- macroscopic negative effects ([4]; iv injections of 20 μg/animal): No macroscopic negative effects
